Seven molecules from ChEMBL document CHEMBL3045358, “Synthesis of kojic acid-derived copper-chelating apoptosis inducing agents” (2013) can be followed below.

The subject of assay [1] is HeLa. Briefly: Antiproliferative activity against Homo sapiens (human) HeLa cells assessed as growth inhibition at 25 uM after 48 hr by MTT assay. It counts as functional, cell-based. A general note: Tetrazolium assays rely on reduction of a dye to a coloured formazan, in cell work by metabolically active cells.
Assay [2] relates to HeLa. Briefly: Antiproliferative activity against Homo sapiens (human) HeLa cells assessed as growth inhibition at 25 uM after 48 hr by MTT assay in presence of 50 uM CuCl2. It counts as functional.
Assay [3] deals with HeLa. Briefly: Induction of cell cycle arrest in Homo sapiens (human) HeLa cells assessed as accumulation of cells at sub-G1 phase at 5 uM after 24 hr by propidium iodide staining based flow cytometry (reference value: 3.41%). It counts as functional. For orientation: A flow cytometer gives signals particle by particle.
The test system of assay [4] is HeLa. Briefly: Antiproliferative activity against Homo sapiens (human) HeLa cells assessed as growth inhibition after 48 hr by MTT assay in presence of 50 uM CuCl2. In kind it is functional.
The target of assay [5] is MAP kinase p38 (Homo sapiens) (UniProt O15264+Q15759+Q16539+P53778). Briefly: Increase in p38 MAPK phosphorylation in Homo sapiens (human) HeLa cells at 15 uM after 24 hr by Western blot analysis in presence of 50 uM CuCl2. In kind it is cell-based. In general terms: A western blot detects proteins with antibodies after separation by electrophoresis.
The test system of assay [6] is HeLa. Briefly: Induction of apoptosis in Homo sapiens (human) HeLa cells assessed as decrease in 32 kDa procaspase-3 level at 15 uM after 24 hr by Western blot analysis in presence of 50 uM CuCl2. It counts as functional, cell-based.
Assay [7] concerns HeLa. Briefly: Increase in ERK phosphorylation in Homo sapiens (human) HeLa cells at 15 uM after 24 hr by Western blot analysis in presence of 50 uM CuCl2. In kind it is cell-based.
The subject of assay [8] is HeLa. Briefly: Antiproliferative activity against Homo sapiens (human) HeLa cells assessed as growth inhibition at 75 uM after 48 hr by MTT assay. In kind it is functional. To be noted: read-out: GI.
For assay [9], the system named is HeLa. Briefly: Induction of cell cycle arrest in Homo sapiens (human) HeLa cells assessed as accumulation of cells at sub-G1 phase at 15 uM after 24 hr by propidium iodide staining based flow cytometry (reference value: 3.41%). It counts as functional.
Assay [10] has as its system HeLa. Briefly: Induction of apoptosis in Homo sapiens (human) HeLa cells assessed as PARP cleavage at 15 uM after 24 hr by Western blot analysis in presence of 50 uM CuCl2. It counts as functional, cell-based.
Assay [11] has as its system HeLa. Briefly: Induction of cell cycle arrest in Homo sapiens (human) HeLa cells assessed as accumulation of cells at sub-G1 phase at 5 uM after 24 hr by propidium iodide staining based flow cytometry in presence of 50 uM CuCl2 (reference value: 3.22%). It counts as functional.
Assay [12] relates to HeLa. Briefly: Induction of cell cycle arrest in Homo sapiens (human) HeLa cells assessed as accumulation of cells at sub-G1 phase at 15 uM after 24 hr by propidium iodide staining based flow cytometry in presence of 50 uM CuCl2 (reference value: 3.22%). In kind it is functional.
Assay [13] relates to HeLa. Briefly: Induction of cell cycle arrest in Homo sapiens (human) HeLa cells assessed as accumulation of cells at sub-G1 phase at 25 uM after 24 hr by propidium iodide staining based flow cytometry in presence of 50 uM CuCl2 (reference value: 3.22%). In kind it is functional.
Assay [14] has as its system HeLa. Briefly: Induction of cell cycle arrest in Homo sapiens (human) HeLa cells assessed as accumulation of cells at sub-G1 phase at 25 uM after 24 hr by propidium iodide staining based flow cytometry (reference value: 3.41%). In kind it is functional.
Assay [15] deals with HeLa. Briefly: Antiproliferative activity against Homo sapiens (human) HeLa cells assessed as growth inhibition after 48 hr by MTT assay. It counts as functional.

Structures are written as SMILES. Active and inactive are the calls of the source. The calls are words filed in the database; no cut-off is given here.

The GI50 is the concentration that inhibits growth by half.

Regarding `O=c1cc(COc2cccc(O)c2)occ1O`, the “growth inhibition (GI)” value in the assay on HeLa [1] and in the assay with HeLa [2] was “inactive” throughout.

Take `O=c1cc(COc2cccc3cccnc23)occ1O`: the Activity in the assay with HeLa [3] was determined as 5.09%; in the assay on HeLa [9], 5.85%; in the assay with HeLa [11], 11.58%; with HeLa [12], 48.56%. Also, the concentration for 50% growth inhibition (GI50) with HeLa [4] turned out to be 7.1 µM. For the same molecule, the result (in [5]; in the assay with HeLa [6]; in the assay on HeLa [7]; with HeLa [10]) was Active. Besides, the “growth inhibition (GI)” value in the assay on HeLa [1] was “inactive”. Moreover, the “growth inhibition (GI)” value with HeLa [2] is given as 95%. In the assay with HeLa [8], the inhibition of growth at 75 µM was determined as 15.2%.

Take `COc1ccc(COc2coc(/C=C/c3ccccc3)cc2=O)cc1`: the “growth inhibition (GI)” value in the assay with HeLa [2] is “inactive”.

In the case of `O=c1cc(/C=C/c2ccc(O)c(O)c2)occ1O`, the “growth inhibition (GI)” value in the assay on HeLa [1] and in the assay on HeLa [2] was “inactive” each time.

Consider `O=c1cc(CN2CCN(S(=O)(=O)c3ccccc3)CC2)occ1O`, for which the “growth inhibition (GI)” value in the assay with HeLa [2] was 35%.

In the case of `O=c1cc(CO)occ1O` [KOJIC ACID], the Activity in the assay on HeLa [13] came to 3.57%; in the assay on HeLa [14], 2.16%. Besides, the “growth inhibition (GI)” value with HeLa [1] and in the assay with HeLa [2] was “inactive” each time.

Turning to `O=c1cc(/C=C/c2ccccc2)occ1O`, the GI50 is 64.5 µM in the assay on HeLa [15] and 11.9 µM in the assay with HeLa [4]. The “growth inhibition (GI)” value in the assay on HeLa [1] is “inactive”. Further, in the assay with HeLa [2], the “growth inhibition (GI)” value worked out at 90%.
